Results from PMC8026324, “In Vitro Antiplasmodial, Heme Polymerization, and Cytotoxicity of Hydroxyxanthone Derivatives” (Journal of Tropical Medicine, 2021).
Where two headings read alike, the source gives them in different places.

Assays:
[1] = system: Plasmodium falciparum 3D-7 (chloroquine-sensitive strain); assay: In vitro antiplasmodial activity assay, microscopic method, strain 3D-7; format: cell-based; details: Plasmodium falciparum
Method: (§1) The test of antiplasmodial activity began with the culture of P. falciparum 3D-7 and FCR-3 using the modified Trager and Jensen method. The plasmodium was cultured in human O red blood cells diluted to 3% haematocrit in RPMI 1640 medium complemented with 10% human O serum. The medium was made by adding 10.43 g of powder RPMI 1640, 6 g HEPES, 2 g NaHCO3, 25 mg gentamycin, and sterile distilled water up to 1 L. The medium pH was adjusted so that it reached ±7.2. It was sterilized using a 0.22 μm filter and stored at 4°C. The complete plasmodium culture medium was made by adding human serum with a concentration of 10% in the medium. The plasmodium culture was incubated in candle jar in an incubator with a temperature of 37°C and was observed every 24 hours.
(§2) The plasmodium was synchronized to obtain the ring stage by adding 5% of D-sorbitol. The plasmodium was transferred from culture flask to a conical tube, and then it was centrifuged with a speed of 1000 rpm for 10 minutes. After the supernatant was disposed, the sterile 5% sorbitol was added and incubated for 10 minutes at a temperature of 37°C. The plasmodium suspension was centrifuged again; the supernatant was disposed and the plasmodium was washed by adding culture medium. Then, the plasmodium suspension was centrifuged again, and the supernatant was discarded, resulting in a plasmodium in ring stage only. The parasitemia was calculated from a thin blood preparation. The test used 1% parasitemia at 2% haematocrit in RPMI medium which complemented with 10% human O serum.
(§3) Each testing compound was dissolved in RPMI medium. The testing compound in various concentrations with volume of 100 μL was incorporated into the 96-well microplate, and then 100 μL of Plasmodium suspension was added. Each series of concentrations was replicated three times. The microplate was incubated at a temperature of 37°C for 72 hours. At the end of the incubation, a thin blood smear was made using 10% Giemsa stain and observed under a light microscope at 1000x magnification. The percentage of parasitemia (counting a minimum of 1,000 erythrocytes) was calculated from the preparation of thin blood and then used to calculate the percentage of plasmodium growth inhibition. […] Antiplasmodial activity is expressed as IC50, which is the concentration of a compound that is required for 50% inhibition of plasmodium growth. The IC50 value was calculated by probit analysis using SPSS software (IBM Corp., Chicago). The lower the IC50 value obtained, the greater the antiplasmodial activity.

[2] = system: Plasmodium falciparum FCR-3 (chloroquine-resistant strain); assay: In vitro antiplasmodial activity assay, microscopic method, strain FCR-3; format: cell-based; details: Plasmodium falciparum
Method: as §1, §2, §3

[3] = system: formation of β-hematin (heme polymerization); assay: In vitro heme polymerization inhibitory activity (HPIA) assay; format: biochemical
Method: The heme polymerization inhibitory activity (HPIA) was conducted according to Basilico et al.'s modified method. The 100 μL of 1 mM hematin in 0.2 M NaOH was added into a microtube. […] Distilled water was used as a negative control. The 50 μL solution of glacial acetic acid (pH 2.6) was added into the microtube to initiate the polymerization reaction and incubated at a temperature of 37°C for 24 hours. Microtubes were centrifuged at 8000 rpm for 10 minutes and the supernatant was discarded and then washed three times using the 200 μL dimethyl sulfoxide (DMSO).Then, the deposition of the hematin crystal was dissolved with 200 μL of 0.1 M NaOH and 100 μL of solution was added into the 96-well microplate.
Absorbance was read using ELISA reader at λ 405 nm. A standard curve was made to illustrate the relationship between the concentration of hematin and its absorbance. The various concentrations of hematin (250; 125; 62.5; 31.25; 15.6; 7.8; and […]) were used to make the standard curve. The heme polymerization inhibition was expressed as IC50, which is the concentration of testing compounds that can inhibit 50% of the formation of β-hematin. The IC50 value was calculated by probit analysis using SPSS software (IBM Corp., Chicago).

[4] = system: formation of β-hematin (heme polymerization); details: read-out: IC50 of chloroquine for heme polymerization inhibition, reference value; threshold reference value; cited from earlier work
[5] = read-out: Growth inhibition of P. falciparum Strain 3D-7
[6] = FCR3, read-out: Growth inhibition of P. falciparum Strain FCR-3

**Q.** Which results are given for CCN(CC)CCCC(C)Nc1ccnc2cc(Cl)ccc12 (stereo not drawn) [Chloroquine, reference compound]?
**A.** IC50 ([1]; 72 h, read-out: IC50 on P. falciparum 3D-7): 0.01 ± 0.001 µM; inhibition at 0.008 µM [1, 5]: 54.4 ± 12.4%; inhibition at 0.016 µM [1, 5]: 96.4 ± 1.13%; inhibition at 0.023 µM [1, 5]: 96.6 ± 1.33%; inhibition at 0.029 µM [1, 5]: 97.49 ± 0.517%; inhibition at 0.037 µM [1, 5]: 97.77 ± 0.69%; IC50 ([2]; FCR3, 72 h, read-out: IC50 on P. falciparum FCR-3): 0.11 ± 0.052 µM; inhibition at 0.008 µM [2, 6]: 18.7 ± 9.23%; inhibition at 0.016 µM [2, 6]: 78.6 ± 4.51%; inhibition at 0.023 µM [2, 6]: 79.9 ± 3.86%; inhibition at 0.029 µM [2, 6]: 82.6 ± 2.94%; inhibition at 0.037 µM [2, 6]: 84.2 ± 2.45%; IC50 ([3]; 24 hours, 37°C, glacial acetic acid pH 2.6): 1480 µM; Inhibition of β-hematin ([3]; compound 0.601 mM): 29.080%; β-Hematin formed ([3]; compound 0.601 mM): 77.787 mM; Inhibition of β-hematin ([3]; compound 1.221 mM): 47.315%; β-Hematin formed ([3]; compound 1.221 mM): 57.787 mM; Inhibition of β-hematin ([3]; compound 2.423 mM): 56.379%; β-Hematin formed ([3]; compound 2.423 mM): 47.845 mM; Inhibition of β-hematin ([3]; compound 4.846 mM): 79.906%; β-Hematin formed ([3]; compound 4.846 mM): 22.040 mM; Inhibition of β-hematin ([3]; compound 9.692 mM): 88.604%; β-Hematin formed ([3]; compound 9.692 mM): 12.500 mM; IC50 [4]: 37500 µM
